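Growth conditions: 96-well plates. Treatment: test compound, 48 hours, 5 concentrations. Analysis: linear interpolation between bracketing concentrations; unreached endpoints set to highest concentration. TGI is the concentration that stops growth completely.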
How the values were obtained:
Assay in all cases: DTP human tumour cell line panel, 48 h
786-0 renal = tested on: 786-0 renal
A498 renal = tested on: A498 renal
A549 NSCLC = tested on: A549 NSCLC
ACHN renal = tested on: ACHN renal
BT-549 breast = tested on: BT-549 breast
CAKI-1 renal = tested on: CAKI-1 renal
CCRF-CEM leukemia = tested on: CCRF-CEM leukemia
COLO 205 colon = tested on: COLO 205 colon
DU-145 prostate = tested on: DU-145 prostate
EKVX NSCLC = tested on: EKVX NSCLC
HCC-2998 colon = tested on: HCC-2998 colon
HCT-116 colon = tested on: HCT-116 colon
HCT-15 colon = tested on: HCT-15 colon
HL-60(TB) leukemia = tested on: HL-60(TB) leukemia
HOP-62 NSCLC = tested on: HOP-62 NSCLC
HOP-92 NSCLC = tested on: HOP-92 NSCLC
HS 578T breast = tested on: HS 578T breast
HT29 colon = tested on: HT29 colon
IGROV1 ovarian = tested on: IGROV1 ovarian
K-562 leukemia = tested on: K-562 leukemia
KM12 colon = tested on: KM12 colon
LOX IMVI melanoma = tested on: LOX IMVI melanoma
M14 melanoma = tested on: M14 melanoma
MCF7 breast = tested on: MCF7 breast
MDA-MB-231 breast = tested on: MDA-MB-231 breast
MDA-MB-435 = tested on: MDA-MB-435
MDA-N = tested on: MDA-N
MOLT-4 leukemia = tested on: MOLT-4 leukemia
NCI-H226 lung = tested on: NCI-H226 lung
NCI-H23 lung = tested on: NCI-H23 lung
NCI-H460 lung = tested on: NCI-H460 lung
NCI-H522 lung = tested on: NCI-H522 lung
NCI/ADR-RES ovarian = tested on: NCI/ADR-RES ovarian
OVCAR-3 ovarian = tested on: OVCAR-3 ovarian
OVCAR-4 ovarian = tested on: OVCAR-4 ovarian
OVCAR-5 ovarian = tested on: OVCAR-5 ovarian
OVCAR-8 ovarian = tested on: OVCAR-8 ovarian
PC-3 prostate = tested on: PC-3 prostate
RPMI-8226 leukemia = tested on: RPMI-8226 leukemia
RXF 393 renal = tested on: RXF 393 renal
SF-268 CNS = tested on: SF-268 CNS
SF-295 CNS = tested on: SF-295 CNS
SF-539 CNS = tested on: SF-539 CNS
SK-MEL-2 melanoma = tested on: SK-MEL-2 melanoma
SK-MEL-28 melanoma = tested on: SK-MEL-28 melanoma
SK-MEL-5 melanoma = tested on: SK-MEL-5 melanoma
SK-OV-3 ovarian = tested on: SK-OV-3 ovarian
SN12C renal = tested on: SN12C renal
SNB-19 CNS = tested on: SNB-19 CNS
SNB-75 CNS = tested on: SNB-75 CNS
SR leukemia = tested on: SR leukemia
SW-620 colon = tested on: SW-620 colon
T-47D breast = tested on: T-47D breast
TK-10 renal = tested on: TK-10 renal
U251 CNS = tested on: U251 CNS
UACC-257 melanoma = tested on: UACC-257 melanoma
UACC-62 melanoma = tested on: UACC-62 melanoma
UO-31 renal = tested on: UO-31 renal
MALME-3M melanoma = tested on: MALME-3M melanoma

Measured: TGI

CCc1nc(N)nc(N)c1-c1ccc([N+](C)(C)C)cc1
not listed: MALME-3M melanoma
> 100 µM: all other assays above

CN1C(=O)C2CCCC(=O)N2c2cccnc21 (centres undefined)
not listed: A498 renal | HOP-92 NSCLC | M14 melanoma | OVCAR-5 ovarian | PC-3 prostate | RXF 393 renal | SK-OV-3 ovarian | SNB-75 CNS
> 100 µM: all other assays above

Reference: PubChem BioAssay (NCI)
